Assay results from patent publication US5972939A, “Cyclopentene derivatives useful as antagonists of the motilin receptor” (Ortho-McNeil Pharmaceutical, Inc., priority 1998, dated 1999).
pIC50: −log10 of the molar value. Read-outs that look alike come from different tables or passages of the source. Blank lines part the entries; values can stand above or below the compound they belong to.

Tests used:
[1] = system: humans; conditions: intravenous, Christofides et al. 1979; cited from earlier work
[2] = system: smooth muscle in the stomach tissue of dogs, rabbits, and humans and in the colon of rabbits; conditions: cited from earlier work
[3] = system: motilin receptor; conditions: Weber et al. 1993; cited from earlier work
[4] = target: T1, motilin receptors located on the colon of mature rabbits (Oryctolagus cuniculus, UniProt G1T803); assay: competition with radiolabeled (125I) porcine motilin for the motilin receptors of rabbit colon; type: binding; conditions: for pIC50: rabbit colon, 125I motilin
T1 construct: The colon from mature New Zealand rabbits was removed, dissected free from the mucosa and serosa layers, and diced into small pieces; from tissue; host or cells: colon smooth muscle of mature New Zealand rabbits, crude membrane homogenate
T1 sequence (G1T803 1-400): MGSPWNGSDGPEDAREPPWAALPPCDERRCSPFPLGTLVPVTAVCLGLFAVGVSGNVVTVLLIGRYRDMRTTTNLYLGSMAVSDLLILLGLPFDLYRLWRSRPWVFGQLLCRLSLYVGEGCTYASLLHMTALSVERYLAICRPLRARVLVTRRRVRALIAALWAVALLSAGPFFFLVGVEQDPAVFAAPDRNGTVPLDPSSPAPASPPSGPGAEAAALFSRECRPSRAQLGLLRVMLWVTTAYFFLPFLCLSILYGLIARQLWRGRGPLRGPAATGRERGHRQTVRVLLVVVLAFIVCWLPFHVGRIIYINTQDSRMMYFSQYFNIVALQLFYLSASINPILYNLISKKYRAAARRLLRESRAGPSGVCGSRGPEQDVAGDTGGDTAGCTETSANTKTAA
Method: The compounds of the invention were tested for their ability to compete with radiolabeled motilin (porcine) for the motilin receptors located on the colon of mature rabbits. The colon from mature New Zealand rabbits was removed, dissected free from the mucosa and serosa layers, and diced into small pieces. […] The homogenate was centrifuged at 1000×g for 15 min. and the supernatant discarded. The pellet was washed twice before being suspended in homogenizing buffer. This crude homogenate is then passed first through a 19 gauge needle then a 23 gauge needle to further suspend the material and stored as -80° C. […] After 30 min, at 30° C., the material was cooled on ice and centrifuged at 13,000×g for 1 minute. The pellet was washed with 1 mL 0.9% saline and centrifuged at 13,000×g for 15 seconds. The pellet was washed again with cold saline and the supernatant was removed. The pellet was counted in the gamma counter to determine the percentage of […] motilin and thereby the percent inhibition of the test compound. IC50s were determined for some compounds by standard techniques.

[5] = system: rabbit duodenum smooth muscle (motilin and erythromycin induced contractions); assay: inhibition of motilin (porcine) induced contractions in rabbit duodenum smooth muscle; type: cell-based; conditions: for pIC50: rabbit duodenum strips, porcine motilin, read-out: IC50
Method: Select compounds of the invention were evaluated for their ability to inhibit motilin and erythromycin induced contractions in the rabbit duodenum smooth muscle. Rabbits were fasted 24-48 h and euthanized. The venral midline incision was made approximately 7.5 cm above the umbilicus upto the xyphoid process, exposing the upper peritoneal cavity. The first 8 cm. of the duodenum starting at the pyloric valve was quickly removed and placed in Krebs solution containing NaCl, ([…]), KCl (4.7 mM), MgSO4 *7 H2 O (1.2 mM), CaCl2 *2 H2 O (2.4 mM), KH2 PO4 (1 mM), D-glucose (10 mM), and NaHCO3 (24 mM). The lumen was flushed with Krebs and excess tissue was removed. The tissue was cut lengthwise, splayed open with the longitudinal muscle layer facing up, and the longitudinal muscle layer was released away from the circular muscle and cut into 3×30 mm strips. A pre-tied 4-0 silk ligature with a loop was placed at the middle of the strip and the strip was folded over the loop so the strip was half its original length. The tissues were mounted in a 10 mL tissue bath (Radnotti Glass Technology, Inc., Monrovia, Calif.) containing Krebs solution gassed with 95% O2 5% CO2 at 37° C. […] The tissues were allowed to equilibrate for 60-90 min with 2-3 wash cycles. The tissues were equilibrated with two initial contractions induced by a concentration of acetylcholine (1×10^-4 M) that produced a maximal contraction (0.1 mM), with the highest taken as 100% maximall contraction of that tissue. Base line and response levels are expressed as grams tension developed and as a percent of the response to acetylcholine. The test compounds were dissolved in DMSO (2 mM/100% DMSO) and applied to the prepared strips 5-15 minutes prior to the addition of porcine motilin. After addition, the tension is constantly monitored over 5 min and the maximum tension is recorded. The percent contraction was measured at four ascending concentrations and where appropriate IC50s were determined.

SMILES: CC[C@H](C)[C@H](NC(=O)[C@@H]1CCCN1C(=O)[C@@H](NC(=O)[C@@H](N)Cc1ccccc1)C(C)C)C(=O)N[C@@H](Cc1ccccc1)C(=O)N[C@H](C(=O)N[C@@H](Cc1ccc(O)cc1)C(=O)NCC(=O)N[C@@H](CCC(=O)O)C(=O)N[C@@H](CC(C)C)C(=O)N[C@@H](CCC(N)=O)C(=O)N[C@@H](CCCNC(=N)N)C(=O)N[C@@H](CCSC)C(=O)N[C@@H](CCC(N)=O)C(=O)N[C@@H](CCC(=O)O)C(=O)N[C@@H](CCCCN)C(=O)N[C@@H](CCC(=O)O)C(=O)N[C@@H](CCCNC(=N)N)C(=O)N[C@@H](CC(N)=O)C(=O)N[C@@H](CCCCN)C(=O)NCC(=O)N[C@@H](CCC(N)=O)C(=O)O)[C@@H](C)O [motilin]
gastric emptying and gut hormone release [1]: increase gastric emptying and gut hormone release
smooth muscle contractions [2]: induces smooth muscle contractions

SMILES: CC[C@H]1OC(=O)[C@H](C)[C@@H](O[C@H]2C[C@@](C)(OC)[C@@H](O)[C@H](C)O2)[C@H](C)[C@@H](O[C@@H]2O[C@H](C)C[C@H](N(C)C)[C@H]2O)[C@](C)(O)C[C@@H](C)C(=O)[C@H](C)[C@@H](O)[C@]1(C)O [erythromycin]
biological responses compared with motilin [3]: elicits biological responses that are comparable to motilin itself

SMILES: O=C(Nc1ccccc1)N(CC1=CC(Cc2ccccc2)(NC(=O)C(Cl)(Cl)Cl)CC1)c1cccc(OCCN2CCOCC2)c1 (stereo not drawn) [Compound 9, 3-Benzyl-3-trichloroacetylamino-1-(N-phenylaminocarbonyl)-N-[(3-(2-morpholinoethoxy)phenyl)amino]methylcyclopentene]
pIC50 ([4]; read-out: IC50): < 6.52
pIC50 [5]: 6.05

SMILES: COc1ccc(C(=O)N(CC2=CC(Cc3ccccc3)(NC(=O)C(Cl)(Cl)Cl)CC2)c2cccc(OCCN3CCOCC3)c2)cc1 (stereo not drawn) [Compound 60]
pIC50 ([4]; read-out: IC50): 7.05
inhibition at 10 µM ([5]; Oryctolagus cuniculus): 49%

Now from value to compound, other results behind:

inhibition at 10 µM ([4]; @ 10 μM): 81%
SMILES: CCN(CC)CCN(CC1=CC(Cc2ccccc2)(NC(=O)C(Cl)(Cl)Cl)CC1)c1cccc(O)c1 (stereo not drawn) [Compound 50]
inhibition at 20 µM ([5]; Oryctolagus cuniculus, @ 20 μM): 98%

pIC50 ([4]; read-out: IC50 (unit inferred)): 6.22
SMILES: CCN(CC)CCN(CC1=CC(Cc2ccccc2)(NC(=O)C(Cl)(Cl)Cl)CC1)c1cccc(OCCN2CCCCC2)c1 (stereo not drawn) [Compound 52]
inhibition at 10 µM ([5]; Oryctolagus cuniculus): 70%

pIC50 ([4]; read-out: IC50 (unit inferred)): 5.74
SMILES: CCN(CC)CCSc1ccc(NCC2=CC(Cc3ccccc3)(NC(=O)C(Cl)(Cl)Cl)CC2)cc1 (stereo not drawn) [Compound 58]
inhibition at 2 µM ([5]; Oryctolagus cuniculus, @ 2 μM (2.0 μM)): 44%

pIC50 ([4]; read-out: IC50): 7.70
pIC50 [5]: 6.55
SMILES: O=C(Nc1ccccc1)N(CC1=CC(Cc2ccccc2)(NC(=O)C(Cl)(Cl)Cl)CC1)c1cccc(OCCN2CCOCC2)c1 (stereo not drawn) [Compound 8]
